This passage reports viability results from ChEMBL document CHEMBL5385961, “In vitro and in vivo evaluation of novel chromeno[2,3-d]pyrimidinones as therapeutic agents for triple negative breast cancer” (RSC Med Chem, 2024).

What all share (format): functional
What all share (conditions): read-out: Activity

The test system of assay [1] is Hs-578T. Nature of the assay: Cytotoxicity against human Hs-578T cells assessed as cell viability at 10 uM incubated for 72 hrs by SRB assay relative to control. For orientation: The SRB assay estimates cell density from bound dye.
For assay [2], the system named is Hs-578T. The assay is described as follows: Cytotoxicity against human Hs-578T cells assessed as cell viability at 30 uM incubated for 72 hrs by SRB assay relative to control.
The subject of assay [3] is MDA-MB-231. The assay is described as follows: Cytotoxicity against human MDA-MB-231 cells assessed as cell viability at 10 uM incubated for 72 hrs by SRB assay relative to control.
The test system of assay [4] is MDA-MB-231. The assay is described as follows: Cytotoxicity against human MDA-MB-231 cells assessed as cell viability at 30 uM incubated for 72 hrs by SRB assay relative to control.
Assay [5] deals with MCF7. Nature of the assay: Cytotoxicity against human MCF7 cells assessed as cell viability at 10 uM incubated for 72 hrs by SRB assay relative to control.
In assay [6] the test system is MCF7. Nature of the assay: Cytotoxicity against human MCF7 cells assessed as cell viability at 30 uM incubated for 72 hrs by SRB assay relative to control.

Consider `COc1cc(OC)c(C2N=C3Oc4c(cccc4OC)C=C3C(=O)N2)c(OC)c1` (configuration not stated), for which the viability at 10 µM stood at 94.8% with Hs-578T [1], 83.6% in the assay on MDA-MB-231 [3] and 99.9% with MCF7 [5]. The viability at 30 µM in the assay on Hs-578T [2] was 86%; in the assay with MDA-MB-231 [4], 77.4%; in the assay with MCF7 [6], 91.8%.
On to `COc1cccc2c1Oc1nc(/C=C/c3ccccc3)[nH]c(=O)c1C2`, for which the results for the viability at 10 µM in the assay with Hs-578T [1], in the assay with MDA-MB-231 [3] and in the assay with MCF7 [5] were 99.8%, 99.2% and 84.7%, respectively. The viability at 30 µM with Hs-578T [2] turned out to be 97.9%; in the assay with MDA-MB-231 [4] it was 92.5%; in the assay on MCF7 [6], 56.7%.
As for `COc1cccc(-c2nc3c(c(=O)[nH]2)Cc2cccc(OC)c2O3)c1`, the viability at 10 µM worked out at 99.3% in the assay with Hs-578T [1], 70.5% in the assay with MDA-MB-231 [3] and 93.6% in the assay with MCF7 [5]. Moreover, the viability at 30 µM was determined as 85.3% in the assay on Hs-578T [2], 51.6% in the assay with MDA-MB-231 [4] and 71.3% in the assay on MCF7 [6].
On to `N#CC1=C(/N=C/Nc2ccccc2)Oc2ccc(Br)cc2C1CC(=O)c1ccccc1` (configuration not stated), for which the viability at 10 µM came to 96.1% in the assay on Hs-578T [1], 98% with MDA-MB-231 [3] and 74.6% in the assay with MCF7 [5]. The values for the viability at 30 µM with Hs-578T [2], in the assay on MDA-MB-231 [4] and in the assay with MCF7 [6] were 89.9%, 96% and 37.9%, respectively.
`COc1cccc2c1Oc1nc(-c3ccc(C)cc3)[nH]c(=O)c1C2`: the viability at 10 µM was 86.8% in the assay on Hs-578T [1], 99.2% in the assay with MDA-MB-231 [3] and 78.5% with MCF7 [5]. For the same compound, the viability at 30 µM with Hs-578T [2] worked out at 63.3%; in the assay with MDA-MB-231 [4], 91.1%; in the assay with MCF7 [6], 77.2%.
For the compound `COc1cccc2c1Oc1nc(-c3ccccc3Cl)[nH]c(=O)c1C2`, the viability at 10 µM was 81.7% in the assay on Hs-578T [1], 92.5% in the assay on MDA-MB-231 [3] and 74.7% in the assay with MCF7 [5]. The viability at 30 µM was found to be 72.5% with Hs-578T [2], 90.1% with MDA-MB-231 [4] and 58.2% with MCF7 [6].
Regarding `COc1cccc2c1Oc1nc(-c3ccco3)[nH]c(=O)c1C2`, the viability at 10 µM in the assay on Hs-578T [1] came out at 99.8%; in the assay with MDA-MB-231 [3] it was 92.8%; with MCF7 [5], 98.9%. Also, the viability at 30 µM amounted to 90.7% in the assay with Hs-578T [2], 85.8% in the assay on MDA-MB-231 [4] and 100% in the assay on MCF7 [6].
Regarding `COc1cccc2c1Oc1nc(-c3ccccc3)[nH]c(=O)c1C2`, the viability at 10 µM in the assay on Hs-578T [1] came to 91.1%; in the assay with MDA-MB-231 [3], 91.8%; in the assay on MCF7 [5] it was 91.2%. The viability at 30 µM in the assay with Hs-578T [2] was determined as 75.8%; with MDA-MB-231 [4], 89.2%; with MCF7 [6], 88.5%.
As to `COc1ccccc1-c1nc2c(c(=O)[nH]1)Cc1cc(Cl)ccc1O2`, the viability at 10 µM is 78.4% in the assay with Hs-578T [1], 88.2% in the assay on MDA-MB-231 [3] and 80% with MCF7 [5]. Also, the figures for the viability at 30 µM in the assay with Hs-578T [2], with MDA-MB-231 [4] and in the assay with MCF7 [6] were 38.7%, 65% and 57.3%, respectively.
Consider `COc1ccc2c(c1)Cc1c(nc(-c3ccccc3OC)[nH]c1=O)O2`, for which the viability at 10 µM in the assay with Hs-578T [1] turned out to be 87.5%; in the assay on MDA-MB-231 [3], 85%; in the assay with MCF7 [5] it was 90.6%. For the same compound, the viability at 30 µM came to 65.6% with Hs-578T [2], 65.9% in the assay on MDA-MB-231 [4] and 70.4% with MCF7 [6].
For `COc1ccc2c(c1)Cc1c(nc(-c3cccc(Cl)c3)[nH]c1=O)O2`, the viability at 10 µM with Hs-578T [1] is 76%; in the assay with MDA-MB-231 [3], 80.7%; in the assay on MCF7 [5], 79.3%. Also, the viability at 30 µM in the assay on Hs-578T [2] was 74.7%; with MDA-MB-231 [4], 44.2%; in the assay on MCF7 [6], 45.8%.
Regarding `COc1cccc2c1Oc1nc(-c3cccc(Cl)c3)[nH]c(=O)c1C2`, the viability at 10 µM in the assay with Hs-578T [1] was found to be 72%; in the assay on MDA-MB-231 [3], 80.8%; in the assay with MCF7 [5], 69.8%. Also, the viability at 30 µM is 49.9% in the assay with Hs-578T [2], 76.9% in the assay on MDA-MB-231 [4] and 40.4% in the assay with MCF7 [6].
